Laboratory results reported in patent US11352329B2, “HIV protease inhibitors” (Gilead Sciences, Inc., priority 2017, dated 2022).
Like-named read-outs stand apart in the source and are kept apart here.

Key:
[1] = Liver microsomal stability, human; assay type: in vitro ADME; details: liver microsomes, read-out: Half-lives
Experimental: Test compounds and one control compound (verapamil) were tested in 3 different species in duplicate sets.
Test compound concentration: 1 uM; Protein concentration: 0.5 mg/mL (for dog, rat, and human liver microsomes); Cofactor: NADPH-Regenerating system (NRS) solution; Time-points: 2, 12, 25, 45, and 65 minutes.
Reaction Composition (in Each Incubation Well) Contains:
At an incubation temperature of 37° C., the reaction was started with addition of NADPH Regeneration System, at each time point, 25 uL of the reaction mixture was removed and added to a plate with 225 uL quenching solution (50% MeOH, 25% ACN, 25% H2O, and 200 nM labetalol as internal standard). After plates were vortexed, they were centrifuged for 30 minutes to remove proteins. About 100 μL supernatant was removed to a new plate and diluted with 150 μL water. About 20 μL of the mixture was injected into LC/MS/MS system to monitor the compound's response. In vitro measured t½ was used to calculate Clint values.

[2] = test system: HIV-1 (IIIB) in MT-4 cells; assay: microbe, parasite or virus in culture; assay type: cell-based
[3] = Human immunodeficiency virus 1, IIIB, MT4, MT-4 cells

| Structure (SMILES) | half-life at 1 uM [1] [h] | EC50 ([2]; MT-4 cells, read-out: MT4 EC50) [nM] | EC50 [2, 3] [nM] |
| --- | --- | --- | --- |
| CC(C)(C)C[C@]1(c2ccc(-c3cnn(C(F)F)c3)cc2)NC(=N)N([C@H](COC(=O)N[C@@H]2C[C@H]2C(F)(F)F)c2ccc(Cl)c(-n3ncnc3C(F)F)c2)C1=O (single isomer, unassigned) [Compound 331] | ≥ 6.58 | – | – |
| [H]/N=C1\N[C@](CC(C)(C)C)(c2ccc(-c3cnn(C(F)F)c3)cc2F)C(=O)N1[C@H](COC(=O)NC1CC1)c1ccc(Cl)c(-c2ncn[nH]2)c1 [Compound 11] | – | 35.5 | – |
| CC(C)(C)C[C@]1(c2ccc(-c3cnn(C(F)F)c3)cc2)NC(=N)N([C@H](COC(=O)NC2CC2)c2ccc(Cl)c(-c3nccc(=O)[nH]3)c2)C1=O [Compound 17] | ≥ 6.58 | – | 556 |
| CC(C)(C)C[C@]1(c2ccc(-c3cnccn3)cc2)NC(=N)N([C@H](COC(=O)NC2(C(F)(F)F)CC2)c2ccc(Cl)c(-c3ncn[nH]3)c2)C1=O [Compound 26] | – | 102 | – |
| CC(C)(C)C[C@]1(c2ccc(-c3cnn(C(F)F)c3)cc2)NC(=N)N([C@H](COC(=O)NC(C)(C)C(F)F)c2ccc(F)c(-c3ncnn3C(F)F)c2)C1=O [Compound 124] | – | – | 65.3 |
| CC(C)(C)C[C@]1(c2ccc(-c3cnn(C4CC4)c3)cc2)NC(=N)N([C@H](COC(=O)NC2(C(F)(F)F)CC2)c2ccc(Cl)c(-c3ncnn3C(F)F)c2)C1=O [Compound 164] | – | – | 16.5 |
| CC(C)(C)C[C@]1(c2ccc(-c3cn(C4CC4)nn3)cc2)NC(=N)N([C@H](COC(=O)NC2(C(F)(F)F)CC2)c2ccc(Cl)c(-n3ncnc3C(F)F)c2)C1=O [Compound 232] | – | – | 18.2 |
| CC(C)(C)C[C@]1(c2ccc(-c3cnn(C(F)F)c3)c(F)c2)NC(=N)N([C@H](COC(=O)NCC(C)(F)F)c2ccc(Cl)c(-n3ncnc3C(F)F)c2)C1=O [Compound 299] | – | 13 | – |
| CC(C)(C)C[C@]1(c2ccc3ncc(Br)cc3c2)NC(=N)N([C@H](COC(=O)NC(C)(C)C(F)F)c2ccc(Cl)c(-n3ncnc3C(F)F)c2)C1=O [Compound 327] | – | – | 30.7 |
| CC(C)(C#N)C[C@]1(c2ccc(-c3cnn(C(F)F)c3)cc2)NC(=N)N([C@H](COC(=O)NC2(C(F)(F)F)CC2)c2ccc(Cl)c(-n3ncnc3C(F)F)c2)C1=O [Compound 336] | ≥ 6.58 | – | 74.7 |
| CC(C)(CC#N)C[C@]1(c2ccc(-c3cnn(C4CC4)n3)cc2)NC(=N)N([C@H](COC(=O)NC2(C(F)(F)F)CC2)c2ccc(Cl)c(-n3ncnc3C(F)F)c2)C1=O [Compound 362] | – | – | 36.4 |
| CC(C)(C)C[C@]1(c2ccc(-c3cnn(C(C)(C)C)n3)cc2)NC(=N)N([C@H](COC(=O)NC2(C(F)(F)F)CC2)c2ccc(Cl)c(-n3ncnc3C(F)F)c2)C1=O [Compound 371] | – | – | 26.7 |
| CC(C)(C)C[C@]1(c2ccc(-c3cnn(C(F)F)c3)cc2)NC(=N)N([C@H](COC(=O)NC2(C(F)(F)F)CC2)c2ccc(-n3ncnc3C(F)F)c(F)c2)C1=O [Compound 379] | – | – | 134 |
| CC(C)(C)C[C@]1(c2ccc(-c3cnn(C(F)F)c3)cc2)NC(=N)N([C@H](COC(=O)NC2(C(F)(F)F)CC2)c2ccc(F)c(-n3ncnc3C(F)F)c2)C1=O [Compound 380] | ≥ 6.58 | – | 29.2 |
| COC(=O)N[C@H](C(=O)N[C@@H](Cc1ccccc1)[C@@H](O)CN(Cc1ccc(-c2ccccn2)cc1)NC(=O)[C@@H](NC(=O)OC)C(C)(C)C)C(C)(C)C [atazanavir, methyl N-[(2S)-1-[2-[(2S,3S)-2-hydroxy-3-[[(2S)-2-(methoxycarbonylamino)-3,3-dimethylbutanoyl]amino]-4-phenylbutyl]-2-[(4-pyridin-2-ylphenyl)methyl]hydrazinyl]-3,3-dimethyl-1-oxobutan-2-yl]carbamate, reference compound] | 0.433 to 1.78 | – | – |
